Data set [1] is described as follows: Drug uptake in Swiss outbred mouse brain assessed as time required to reach peak value at 3 mg/kg, iv measured after 60 mins by LC-MS/MS analysis. Format: ADME, organism-based.
A short description of data set [2]: Unbound brain-to-plasma concentration ratio in Swiss outbred mouse at 4.4 mg/kg, iv measured after 2 hrs. Format: ADME, organism-based. The note with it: read-out: K(p,uu,brain).
For data set [3], the target named is T1, Tyrosine-protein kinase Mer (Mus musculus) (UniProt Q60805).
T1 sequence (whole entry): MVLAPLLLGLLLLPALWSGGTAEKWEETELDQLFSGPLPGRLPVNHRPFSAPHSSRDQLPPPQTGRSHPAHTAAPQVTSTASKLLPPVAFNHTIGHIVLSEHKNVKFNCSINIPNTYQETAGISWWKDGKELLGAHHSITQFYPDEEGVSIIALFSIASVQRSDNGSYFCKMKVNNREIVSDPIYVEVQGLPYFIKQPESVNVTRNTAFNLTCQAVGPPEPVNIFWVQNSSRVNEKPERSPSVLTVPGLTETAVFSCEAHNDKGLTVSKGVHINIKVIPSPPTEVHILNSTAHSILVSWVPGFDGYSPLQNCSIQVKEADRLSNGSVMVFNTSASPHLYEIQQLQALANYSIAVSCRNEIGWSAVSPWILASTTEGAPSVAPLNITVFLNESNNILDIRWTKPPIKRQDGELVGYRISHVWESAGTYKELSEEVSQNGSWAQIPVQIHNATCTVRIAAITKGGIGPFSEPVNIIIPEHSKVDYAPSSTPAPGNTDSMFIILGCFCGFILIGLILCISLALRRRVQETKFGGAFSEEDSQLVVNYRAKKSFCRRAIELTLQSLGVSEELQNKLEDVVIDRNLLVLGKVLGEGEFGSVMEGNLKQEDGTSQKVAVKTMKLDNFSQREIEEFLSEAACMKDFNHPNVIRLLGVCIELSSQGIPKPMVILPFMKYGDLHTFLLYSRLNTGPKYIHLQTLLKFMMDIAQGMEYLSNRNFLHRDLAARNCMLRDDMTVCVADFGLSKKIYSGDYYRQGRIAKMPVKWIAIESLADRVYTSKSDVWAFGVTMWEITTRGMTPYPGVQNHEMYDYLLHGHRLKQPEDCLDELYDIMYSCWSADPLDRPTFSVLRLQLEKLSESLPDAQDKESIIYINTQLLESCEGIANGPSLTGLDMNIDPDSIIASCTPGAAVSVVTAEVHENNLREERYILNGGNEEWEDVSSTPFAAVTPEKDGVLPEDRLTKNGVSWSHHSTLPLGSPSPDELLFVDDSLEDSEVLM
Description: Binding affinity to MERTK in cuprizone-challenged C57BL/6 mouse whole brain assessed as maximum binding at 18.1 nM by autoradiography. Format: tissue-based. The note with it: tested as the 18F-labelled form.

Data set [4] concerns the target T1, Tyrosine-protein kinase Mer (Mus musculus). Description: Binding affinity to MERTK in cuprizone-challenged C57BL/6 mouse brain CC/HC region assessed as maximum binding at 18.1 nM by autoradiography. In kind it is tissue-based. The note with it: tested as the 18F-labelled form.
Data set [5] concerns the target T2, Tyrosine-protein kinase Mer (Mus musculus, UniProt Q60805).
T2 sequence (Q60805 whole entry): T1 sequence (whole entry)
Description: Binding affinity to MERTK in cuprizone-challenged C57BL/6 mouse whole brain assessed as dissociation constant at 18.1 nM by autoradiography. Format: tissue-based.

For data set [6], the target named is T2, Tyrosine-protein kinase Mer. Description: Binding affinity to MERTK in cuprizone-challenged C57BL/6 mouse brain CC/HC region assessed as dissociation constant at 18.1 nM by autoradiography. Format: tissue-based.
Data set [7] can be described thus: Drug uptake in liver of cuprizone-challenged C57BL/6 mouse at 4.4 mg/kg, iv by PET imaging. Format: ADME, organism-based. As to conditions: in vivo.
Data set [8] can be described thus: Drug uptake in heart of cuprizone-challenged C57BL/6 mouse at 4.4 mg/kg, iv by PET imaging. The note with it: in vivo. Format: ADME, organism-based.
The nature of data set [9]: Drug uptake in brain of cuprizone-challenged C57BL/6 mouse at 4.4 mg/kg, iv by PET imaging measured upto 2 mins. Format: ADME, organism-based. As to conditions: in vivo.
Data set [10] in a line: Retention time of the compound by HPLC analysis. In kind it is physicochemical.
The nature of data set [11]: Retention time of the compound by UV-Vis spectroscopy analysis. In kind it is physicochemical.

In general, Tmax refers to the time at which the peak concentration occurs. By Kd is commonly meant the constant that tells how readily two partners part at equilibrium.

With `CCCCNc1ncc(C(=O)NC2CCN(CCCF)CC2)c(N[C@H]2CC[C@H](O)CC2)n1`, the Tmax in data set [1] turned out to be 15 min. For the same molecule, the Kp uu at 2 h in data set [2] is more than 1. Moreover, the Bmax in data set [3] is 422 fmol/mg; in data set [4], 896 fmol/mg.

With `CCCCNc1ncc(C(=O)NC2CCN(CCF)CC2)c(N[C@H]2CC[C@H](O)CC2)n1`, the Tmax in data set [1] is 15 min.

Regarding `CCCCNc1ncc(C(=O)NC2CCN(CCC[18F])CC2)c(N[C@H]2CC[C@H](O)CC2)n1`, the values for the Kd in data set [5] and in data set [6] were 0.0126 µM and 0.0197 µM, respectively. The values for the Drug uptake entry in data set [7], in data set [8] and in data set [9] were “<= 0.24%”, “<= 0.24%” and 0.023%, respectively. The Retention_time in data set [10] is on record as 18.57 min; in data set [11] it was 18.8 min.

(Values after ChEMBL document CHEMBL5154642, “Development of [18F]MIPS15692, a radiotracer with in vitro proof-of-concept for the imaging of MER tyrosine kinase (MERTK) in neuroinflammatory disease” (Eur J Med Chem, 2021).)
